Experimental data as given in patent US20120316161A1, “NOVEL ANTIVIRAL COMPOUNDS” (KATHOLIEKE UNIVERSITEIT LEUVEN, priority 2009, published 2012).
Where two headings read alike, the source gives them in different places.

Assays:
MT-4 cells = assay: Cytotoxicity in mock-infected MT-4 cells (MTT); format: cell-based
Method: (§1) A rapid and automated assay procedure was used for the in vitro evaluation of anti-HIV agents. An HTLV-1 transformed T4-cell line MT-4, which was previously shown to be highly susceptible to and permissive for HIV infection, served as the target cell line. Inhibition of the HIV-induced cytopathogenic effect was used as the end point. The viability of both HIV-and mock-infected cells was assessed spectrophotometrically via in situ reduction of 3-(4,5-dimethylthiazol-2-yl)-2,5-diphenyltetrazolium bromide (MTT). […] The percent protection achieved by the compound in HIV-infected cells was calculated by the following formula: […]
(§2) whereby (ODT)HIV is the optical density measured with a given concentration of the test compound in HIV-infected cells; (ODC)HIV is the optical density measured for the control untreated HIV-infected cells; (ODC)MOCK is the optical density measured for the control untreated mock-infected cells; all optical density values were determined at 540 nm. […] The ratio of CC50 to EC50 was defined as the selectivity index (SI).

[1] = target: T1, LEDGF-integrase interaction (His6-tagged HIV-1 integrase, flag-LEDGF/p75) (Human immunodeficiency virus type 1 group M subtype B, UniProt P04585); assay: AlphaScreen assay of LEDGF-integrase interaction inhibition; format: binding; conditions: compound at 100 μM
T1 construct: His6-tagged HIV-1 integrase; made in house
Method: The AlphaScreen assay was performed according to the manufacturer's protocol (Perkin Elmer, Benelux). Reactions were performed in 25 μl final volume in 384-well Optiwell™ microtiter plates (Perkin Elmer). The reaction buffer contained 25 mM Tris-HCl (pH 7.4), 150 mM NaCl, 1 mM MgCl2, 0.01% (v/v) Tween-20 and 0.1% (w/v) bovine serum albumin. His6-tagged integrase (300 nM final concentration) was incubated with the compounds for 30 min at 4° C. The compounds were added at varying concentrations spanning a wide range from 0.1 up to 100 μM. Afterwards 100 nM flag-LEDGF/p75 was added and incubation was prolonged for an additional hour at 4° C. Subsequently 5 μl of Ni-chelate—coated acceptor beads and 5 μl anti-flag donor beads were added to a final concentration of 20 μg/ml of both beads. Proteins and beads were incubated for 1 h at 30° C. in order to allow association to occur. Exposure of the reaction to direct light was omitted as much as possible and the emission of light from the acceptor beads was measured in the EnVision plate reader (Perkin Elmer, Benelux) and analyzed using the EnVision manager software. IN/DNA binding was analyzed in a similar setting using His6-tagged integrase (1 μM final concentration) and an oligodeoxynucleotide mimicking the IN ELISA oligonucleotide substrate (30 nM final concentration). Counterscreens with JPO2 or PogZ, respectively, were essentially performed as described previously. Expression and purification of recombinant proteins: His6-tagged HIV-1 integrase, 3xflag-tagged LEDGF/p75, MBP-JPO2 and MBP-PogZ were purified for AlphaScreen applications as described previously.

HIV = assay: microbe, parasite or virus in culture; format: cell-based
Method: A rapid and automated assay procedure was used for the in vitro evaluation of anti-HIV agents. An HTLV-1 transformed T4-cell line MT-4, which was previously shown to be highly susceptible to and permissive for HIV infection, served as the target cell line. Inhibition of the HIV-induced cytopathogenic effect was used as the end point. The viability of both HIV-and mock-infected cells was assessed spectrophotometrically via in situ reduction of 3-(4,5-dimethylthiazol-2-yl)-2,5-diphenyltetrazolium bromide (MTT). The 50% cytotoxic concentration (CC50 in μg/ml) was defined as the concentration of compound that reduced the absorbance of the mock-infected control sample by 50%. The percent protection achieved by the compound in HIV-infected cells was calculated by the following formula: […]
whereby (ODT)HIV is the optical density measured with a given concentration of the test compound in HIV-infected cells; (ODC)HIV is the optical density measured for the control untreated HIV-infected cells; (ODC)MOCK is the optical density measured for the control untreated mock-infected cells; all optical density values were determined at 540 nm. The dose achieving 50% protection according to the above formula was defined as the 50% inhibitory concentration (EC50 in μg/ml or μM). The ratio of CC50 to EC50 was defined as the selectivity index (SI). […] Examples of inhibition of cell proliferation by particular compounds of the invention can be found by looking at the respective CC50 values in the MT-4 cell line. Cells: MT-4 cells (Miyoshi et al., 1982) were grown and maintained in RPMI 1640medium supplemented with 10% heat-inactivated fetal calf serum, 2 mM 1-glutamine, 0.1% sodium bicarbonate, and 20æg of gentamicin per ml.
Viruses: The HIV-1 (NL4.3) strain (Adachi et al., 1986) is a molecular clone obtained from the National Institutes of Health (Bethesda, Md.). The HIV-2 (ROD) (Barr, -Sinoussi et al., 1983) stock was obtained from culture supernatant of HIV-2 infected cell lines.

[2] = Cytotoxicity in mock-infected MT-4 cells (MTT); format: cell-based; conditions: human, mock-infected MT-4 cells
Method: as §1, §2

[3] = mock-infected MT-4 cells, read-out: CC50
[4] = 50% protection of HIV-infected MT-4 cells, read-out: EC50
[5] = Human immunodeficiency virus 1, MT4, 50% protection of HIV-infected MT-4 cells, read-out: EC50
[6] = Human immunodeficiency virus 1, MT4

Compound | CC50 (MT-4 cells; [3]) [µM] | Alpha screen % (100 μM) [1] [%] | EC50 (HIV; [4]) [µM] | CC50 [2] [µM] | EC50 (HIV; [5]) [µM] | EC50 (HIV; [6]) [µM] | CC50 (MT-4 cells) [µM]
2-[2-tert-butyl-7-(1,2-dihydroacenaphthylen-5-yl)-5-methylpyrazolo[1,5-a]pyrimidin-6-yl]acetic acid [CPD-111] | 50 | 89 |  |  |  |  | 
2-[2-tert-butyl-7-(1,2-dihydroacenaphthylen-5-yl)-5-methylpyrazolo[1,5-a]pyrimidin-6-yl]acetic acid [CPD-112] | 59 | 93 |  |  |  |  | 
2-[2-tert-butyl-7-(2-hydroxy-4-methylphenyl)-5-methylpyrazolo[1,5-a]pyrimidin-6-yl]acetic acid [CPD-117] | 116 | 95 | 2.06 |  |  |  | 
COCCC(C(=O)O)c1c(C)nc2cc(C(C)(C)C)nn2c1-c1ccc(C)cc1 (stereo not drawn) [CPD-88, 2-(2-tert-butyl-7-p-tolyl-5-methylpyrazolo[1,5-a]pyrimidin-6-yl)-4-methoxybutanoic acid] |  | 44 |  | > 250 | 38 |  | 
CCCC(C(=O)O)c1c(C)nc2cc(C(C)(C)C)nn2c1-c1ccc(C(C)C)cc1 (stereo not drawn) [CPD-89, 2-(2-tert-butyl-5-methyl-7-(4-iso-propylphenyl)pyrazolo[1,5-a]pyrimidin-6-yl)pentanoic acid] |  | 89 |  | 139 |  | 24 | 
CCCC(C(=O)O)c1c(C)nc2cc(C(C)(C)C)nn2c1-c1ccc(C(F)(F)F)cc1 (stereo not drawn) [CPD-90, 2-(2-tert-butyl-5-methyl-7-(4-trifluoromethylphenyl)pyrazolo[1,5-a]pyrimidin-6-yl)pentanoic acid] |  | 70 |  | 22 | 6.15 |  | 
CCCC(C(=O)O)c1c(C)nc2cc(C(C)(C)C)nn2c1-c1ccc(F)cc1F (stereo not drawn) [CPD-91, 2-(2-tert-butyl-7-(2,4-difluorophenyl)-5-methylpyrazolo[1,5-a]pyrimidin-6-yl)pentanoic acid] |  | 90 |  | 85.5 | 15.7 |  | 
CCCC(C(=O)O)c1c(C)nc2cc(C(C)(C)C)nn2c1-c1ccc(C)cc1Cl (stereo not drawn) [CPD-92, 2-(2-tert-butyl-7-(2-chloro-4-methylphenyl)-5-methylpyrazolo[1,5-a]pyrimidin-6-yl)pentanoic acid] |  | 95 |  | 60.5 | 9.13 |  | 
CCCC(C(=O)O)c1c(C)nc2cc(C(C)(C)C)nn2c1-c1ccc(C)cc1N (stereo not drawn) [CPD-93, 2-(7-(2-amino-4-methylphenyl)-2-tert-butyl-5-methylpyrazolo[1,5-a]pyrimidin-6-yl)pentanoic acid] |  | 90 |  | 119 |  | 7.4 | 
CCCC(C(=O)O)c1c(C)nc2cc(C(C)(C)C)nn2c1-c1ccc(OC)cc1F (stereo not drawn) [CPD-95, 2-(2-tert-butyl-7-(2-fluoro-4-methoxyphenyl)-5-methylpyrazolo[1,5-a]pyrimidin-6-yl)pentanoic acid] |  | 83 |  | 115 | 7.48 |  | 
CCCC(C(=O)O)c1c(C)nc2cc(C(C)(C)C)nn2c1-c1ccc(C)cc1C (stereo not drawn) [CPD-98, 2-(2-tert-butyl-7-(2,4-dimethylphenyl)-5-methylpyrazolo[1,5-a]pyrimidin-6-yl)pentanoic acid] |  | 89 |  | 69 |  | 5.91 | 
CCCC(C(=O)O)c1c(C)nc2c(C)c(C(C)(C)C)nn2c1-c1ccc(C)cc1 (stereo not drawn) [CPD-99, 2-(2-tert-butyl-3,5-dimethyl-7-p-tolylpyrazolo[1,5-a]pyrimidin-6-yl)pentanoic acid] |  | 81 |  | 34 | 1.01 |  | 
CCCC(C(=O)O)c1c(C)nc2c(-c3ccccc3)c(C(C)(C)C)nn2c1-c1ccc(C)cc1 (stereo not drawn) [CPD-100, 2-(2-tert-butyl-5-methyl-3-phenyl-7-p-tolylpyrazolo[1,5-a]pyrimidin-6-yl)pentanoic acid] |  | 92 |  | 23 | 6.24 |  | 
Ethyl 2-(2-benzyl-5-methyl-7-p-tolyl-[1,2,4]-triazolo[1,5-a]pyrimidin-6-yl)pentanoate [CPD-123] |  |  | 26.1 |  |  |  | 126
